Experimental data as given in ChEMBL document CHEMBL1143695, “Synthesis and biological studies of novel 2-aminoalkylethers as potential antiarrhythmic agents for the conversion of atrial fibrillation” (J Med Chem, 2007).
pIC50: −log10 of the molar value. Calls of active or inactive are those of the source. No cut-off for these calls is given here.

Columns and labels:
Rattus norvegicus [1] = experiment: CNS toxicity in iv dosed Sprague-Dawley rat assessed as cumulative convulsion dose; type: organism-based; details: in vivo
in vivo = details: CD1, mouse, iv
Description: Toxicity in intravenously dosed CD1 mouse

Rattus norvegicus [2] = experiment: Antiarrhythmic activity in intravenously dosed Sprague-Dawley rat with ischemia-induced arrhythmia; type: functional, Heart
[3] = target: Potassium voltage-gated channel subfamily A member 5 (Homo sapiens, UniProt P22460); experiment: Inhibition of human potassium channel Kv1.5 by patch-clamp method
Potassium voltage-gated channel subfamily A member 5, sequence (P22460 whole entry): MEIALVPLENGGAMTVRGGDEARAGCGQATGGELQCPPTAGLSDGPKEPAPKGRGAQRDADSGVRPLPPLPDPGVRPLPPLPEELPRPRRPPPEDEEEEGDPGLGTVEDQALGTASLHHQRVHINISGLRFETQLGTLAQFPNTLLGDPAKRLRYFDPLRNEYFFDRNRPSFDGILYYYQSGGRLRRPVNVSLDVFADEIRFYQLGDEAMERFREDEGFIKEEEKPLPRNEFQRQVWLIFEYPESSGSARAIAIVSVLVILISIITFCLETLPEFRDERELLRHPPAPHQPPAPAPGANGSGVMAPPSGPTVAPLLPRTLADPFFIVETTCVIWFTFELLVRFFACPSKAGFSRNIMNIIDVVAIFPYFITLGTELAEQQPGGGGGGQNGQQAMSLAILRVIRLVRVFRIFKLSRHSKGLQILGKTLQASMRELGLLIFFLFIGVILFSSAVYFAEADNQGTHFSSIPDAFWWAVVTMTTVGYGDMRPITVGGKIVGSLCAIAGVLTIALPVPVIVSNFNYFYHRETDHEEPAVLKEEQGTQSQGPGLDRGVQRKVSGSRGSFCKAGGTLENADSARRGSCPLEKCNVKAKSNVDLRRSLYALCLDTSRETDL

[4] = target: T1, A-type voltage-gated potassium channel KCND2 (Rattus norvegicus, UniProt Q63881); experiment: Inhibition of rat potassium channel Kv4.2 by patch-clamp method
T1 sequence (Q63881 whole entry): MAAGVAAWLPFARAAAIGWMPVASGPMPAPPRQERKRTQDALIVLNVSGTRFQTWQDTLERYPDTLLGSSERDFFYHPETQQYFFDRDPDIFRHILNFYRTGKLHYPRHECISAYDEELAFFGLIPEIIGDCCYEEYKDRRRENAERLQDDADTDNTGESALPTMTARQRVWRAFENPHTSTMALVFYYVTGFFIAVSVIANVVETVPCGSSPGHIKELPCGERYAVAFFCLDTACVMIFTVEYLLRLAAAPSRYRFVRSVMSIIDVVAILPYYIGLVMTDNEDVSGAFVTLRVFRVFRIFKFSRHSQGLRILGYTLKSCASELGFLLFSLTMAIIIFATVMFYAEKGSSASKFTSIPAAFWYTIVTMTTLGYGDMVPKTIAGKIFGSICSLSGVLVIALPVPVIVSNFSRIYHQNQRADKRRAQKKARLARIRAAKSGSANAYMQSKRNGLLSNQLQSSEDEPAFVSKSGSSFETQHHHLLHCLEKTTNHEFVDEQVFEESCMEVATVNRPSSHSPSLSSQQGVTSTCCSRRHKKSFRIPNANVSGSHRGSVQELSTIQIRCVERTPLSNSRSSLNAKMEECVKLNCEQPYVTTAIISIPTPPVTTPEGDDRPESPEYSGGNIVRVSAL

Canis familiaris [5] = organism: Canis familiaris; experiment: Reduction of blood pressure in Mongrel dog vagal atrial fibrillation model; type: functional, organism-based; details: Canis lupus familiaris
Canis familiaris [6] = organism: Canis familiaris; experiment: Reduction of heart rate in Mongrel dog vagal atrial fibrillation model; type: functional, organism-based; details: Canis lupus familiaris

Row | SMILES | Activity (Rattus norvegicus [1]) [µmol/kg] | ED50 (Rattus norvegicus [2]) [µmol/kg/min] | other results
1 | c1ccc2cc(CCO[C@@H]3CCCC[C@H]3N3CCOCC3)ccc2c1 | 85 | 0.8 | LD50 (in vivo): 130 µmol/kg
2 | Brc1ccccc1CCO[C@@H]1CCCC[C@H]1N1CCOCC1 | 125 | 1 | LD50 (in vivo): 86 µmol/kg
3 | COCCN(CCOC)[C@@H]1CCCC[C@H]1OCCc1ccc2ccccc2c1 | 83 | 3 | 
4 | COc1ccc(CCCCO[C@@H]2CCCC[C@H]2N2CCOCC2)cc1OC | 67 | 1.5 | 
5 | COc1ccc(CCO[C@@H]2CCCC[C@H]2N2CCNCC2)cc1OC | 392 | 1.6 | 
6 | O=C1CCN([C@@H]2CCCC[C@H]2OCCc2csc3ccccc23)C1 | 203 |  | 
7 | COc1ccc(CCCO[C@@H]2CCCC[C@H]2N2CCOCC2)cc1OC | 109 | 1.5 | LD50 (in vivo): 112 µmol/kg
8 | Brc1cccc(CCO[C@@H]2CCCC[C@H]2N2CCOCC2)c1 | 131 | 1.9 | 
9 | Clc1cccc(Cl)c1CCO[C@@H]1CCCC[C@H]1N1CCOCC1 | 86 | 1.2 | LD50 (in vivo): 76 µmol/kg
10 | O=C1CCN([C@@H]2CCCC[C@H]2OCCc2ccccc2Br)C1 | 155 |  | 
11 | O=C1CCN([C@@H]2CCCC[C@H]2OCC(c2ccccc2)c2ccccc2)C1 | 155 | 2.5 | 
12 | FC(F)(F)c1ccccc1CCO[C@H]1CCCC[C@H]1N1CCOCC1 (single isomer, unassigned) | 102 | 1.4 | 
13 | O=C1CCN([C@@H]2CCCC[C@H]2OCCc2ccc(Br)c3ccccc23)C1 | 246 | 2.8 | 
14 | O=C1CCN([C@@H]2CCCC[C@H]2OCCCC2CCCCC2)C1 | 300 |  | 
15 | O=C(NCC1CCCCN1)c1cc(OCC(F)(F)F)ccc1OCC(F)(F)F (centres undefined) [FLECAINIDE] | 113 |  | LD50 (in vivo): 20 µmol/kg; pIC50 [3]: 4.29; pIC50 [4]: 5.00
16 | c1ccc2c(CCO[C@@H]3CCCC[C@H]3N3CCOCC3)csc2c1 | 65 | 0.8 | LD50 (in vivo): 52 µmol/kg
17 | OC1CCN([C@@H]2CCCC[C@@H]2OCCc2cccc3ccccc23)C1 (mixture of isomers) | 70 | 0.4 | 
18 | O=C1CCN([C@@H]2CCCC[C@H]2OCCc2ccccc2C(F)(F)F)C1 | 225 | 2.7 | 
19 | c1ccc2c(CCO[C@@H]3CCCC[C@H]3N3CCCC3)cccc2c1 |  | 0.9 | 
20 | C=C[C@H]1CN2CC[C@H]1C[C@@H]2[C@@H](O)c1ccnc2ccc(OC)cc12 [QUINIDINE] | 317 | 4 | 
21 | FC(F)(F)c1ccccc1CCO[C@@H]1CCCC[C@H]1N1CCOCC1 | 134 | 0.8 | 
22 | Brc1ccc(CCO[C@@H]2CCCC[C@H]2N2CCOCC2)cc1 | 91 | 2.5 | LD50 (in vivo): 103 µmol/kg
23 | Brc1ccc(CCCO[C@@H]2CCCC[C@H]2N2CCOCC2)cc1 | 143 | 3.5 | LD50 (in vivo): 209 µmol/kg
24 | c1ccc2cc(OCCO[C@@H]3CCCC[C@H]3N3CCOCC3)ccc2c1 | 62 |  | 

Row | SMILES | Activity (Rattus norvegicus [1]) [µmol/kg] | ED50 (Rattus norvegicus [2]) [µmol/kg/min] | other results
25 | COc1ccc(CCCO[C@@H]2CCCC[C@H]2N2CCOCC2)c(OC)c1 | 94 | 1.2 | LD50 (in vivo): 130 µmol/kg
26 | Clc1cccc(Cl)c1CCO[C@@H]1CCCC[C@H]1N1CCSC1 | 331 | 6.5 | 
27 | CC(=O)N1CCN([C@@H]2CCCC[C@H]2OCCc2ccc3ccccc3c2)CC1 | 67 |  | 
28 | O=C1CCN([C@@H]2CCCC[C@H]2OCCc2cccc3ccccc23)C1 (stereo in doubt; 26) |  |  | Activity (Canis familiaris [5]): inactive; Activity (Canis familiaris [6]): inactive
29 | OC1CCN([C@@H]2CCCC[C@H]2OCCc2ccccc2Br)C1 (mixture of isomers) | 67 | 0.4 | 
30 | c1cc(CCO[C@@H]2CCCC[C@H]2N2CCOCC2)c2ccsc2c1 | 54 | 0.7 | LD50 (in vivo): 38 µmol/kg
31 | O=C1CCN([C@@H]2CCCC[C@H]2OCCc2ccc(Br)cc2Br)C1 | 246 |  | 
32 | Brc1ccc(OCCO[C@@H]2CCCC[C@H]2N2CCOCC2)cc1 | 83 | 2.5 | 
33 | COc1ccc(CCO[C@@H]2CCCC[C@H]2N2CCC(=O)C2)cc1OC | 235 | 4.5 | 
34 | c1ccc2c(CCO[C@@H]3CCCC[C@H]3N3CCC4(C3)OCCO4)cccc2c1 | 41 |  | 
35 | COc1ccc(CCO[C@@H]2CCCC[C@H]2N2CCOCC2)cc1OC | 113 | 1.5 | LD50 (in vivo): 97 µmol/kg
36 | O=C1CCN([C@@H]2CCCC[C@H]2OCCc2ccc(Br)cc2)C1 | 161 | 8 | 
37 | Brc1ccc(CCO[C@@H]2CCCC[C@H]2N2CCOCC2)c(Br)c1 | 123 |  | 
38 | O=C1CCN([C@@H]2CCCC[C@H]2OCCc2cccc3ccccc23)CC1 | 75 | 0.9 | 
39 | Brc1ccc(CCO[C@H]2CCCC[C@H]2N2CCOCC2)cc1 (single isomer, unassigned) | 6.7 | 2 | 
40 | OC1CCN([C@@H]2CCCC[C@H]2OCCc2cccc3ccccc23)C1 (mixture of isomers) | 67 | 0.8 | 
41 | CCN(CC)CC(=O)Nc1c(C)cccc1C [LIDOCAINE] | 190 | 4.5 | pIC50 [3]: 2.66; pIC50 [4]: 2.92
42 | COc1ccc(CCO[C@@H]2CCCC[C@H]2N2CCCC2)cc1OC | 118 | 1.3 | 
43 | Clc1ccc(CCO[C@@H]2CCCC[C@H]2N2CCOCC2)c(Cl)c1 | 94 | 2.1 | 
44 | c1ccc2cc(CCO[C@@H]3CCC[C@H]3N3CCOCC3)ccc2c1 | 187 | 1.5 | 
45 | c1cc(CCO[C@@H]2CCCC[C@H]2N2CCOCC2)c2ccoc2c1 |  | 1.4 | LD50 (in vivo): 56 µmol/kg
46 | COc1ccc(CCO[C@@H]2CCCC[C@H]2N2CCC3(C2)OCCO3)cc1OC | 91 | 1.6 | 
47 | O=C1CCN([C@@H]2CCCC[C@@H]2OCCc2cccc3ccccc23)C1 | 145 | 1.6 | 
